Read-outs that look alike come from different tables or passages of the source.
Tests used:
[1] = target: T1, human CD40-CD40L (Homo sapiens, UniProt P29965); assay: Cell-free ELISA-type CD40-CD40L binding inhibition assay
T1 construct: purchased Enzo Life Sciences (San Diego, Calif.)
T1 sequence (P29965 116-261 limits assumed): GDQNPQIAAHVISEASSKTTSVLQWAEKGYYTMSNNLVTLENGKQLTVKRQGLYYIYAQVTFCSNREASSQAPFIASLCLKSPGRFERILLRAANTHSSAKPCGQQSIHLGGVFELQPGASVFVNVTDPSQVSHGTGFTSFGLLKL
Protocol: Compounds according to the disclosure were assessed for their ability to inhibit the binding of tagged ligands to plate-bound receptors using ELISA-type 96-well plate-based cell-free assays as described in the literature (see Margolles-Clark et al, J Mol Med 87:1133-1143 (2009); Margolles-Clark et al., Chem Biol Drug Des 76:305-313 (2010); Song et al., Br J Pharmacol 171:4955-4969 (2014); and Ganesan et al., Biochem Pharmacol 81:810-818 (2011)).
Recombinant receptors (hCD40:Fc, TNF-R1:Fc) and tagged ligands (hCD154, MegaCD40L, and TNF-α), were obtained from Enzo Life Sciences (San Diego, Calif.). Microtiter plates (Nunc F Maxisorp; 96-well) were coated overnight at 4° C. with 100 μL/well of Fc chimeric receptors diluted in PBS 7.2. This was followed by blocking with 200 μL/well of blocking solution (PBS 7.2, 0.05% Tween-20, 1% BSA) for 1 hour at room temperature. […] Either anti-FLAG-HRP or streptavidin-HRP conjugate was used to detect the bound FLAG-tagged or biotinylated ligand, respectively. Plates were washed three times before the addition of 120 μL/well of HRP substrate TMB (3, 3′, 5, 5′-tetramethylbenzidine) and kept in the dark for 15-30 min. The reaction was stopped using 30 μL 1M H2SO4, and the absorbance was read at 450 nm. Stock solutions of compounds at 10 mM in DMSO were used.
(§1) Typical concentrations used were as follows—receptors: 0.3 μg/mL for CD40, TNF-R1, and RANK; 0.6 μg/mL for BAFF-R, OX40, and 4-1BB; and 2 μg/mL for EGF-R-ligands: 0.02 μg/mL for CD40L, TNFα, and RANKL; 0.2 μg/ml for BAFF, OX40L, 4-1BBL; and 0.3 μg/mL for EGF. Assays were done in duplicate or triplicate per plate and repeated at least three times; the averaged data were normalized and used for data fitting and analysis. Binding data were fitted using the standard log inhibitor versus response model in GraphPad Prism to determine the corresponding IC50 values.

[2] = target: T2, OX40-OX40L (Homo sapiens, UniProt P23510+P43489); assay: Cell-free ELISA-type OX40 binding inhibition assay; settings: Table 2
T2 sequence (P43489 29-214 limits assumed): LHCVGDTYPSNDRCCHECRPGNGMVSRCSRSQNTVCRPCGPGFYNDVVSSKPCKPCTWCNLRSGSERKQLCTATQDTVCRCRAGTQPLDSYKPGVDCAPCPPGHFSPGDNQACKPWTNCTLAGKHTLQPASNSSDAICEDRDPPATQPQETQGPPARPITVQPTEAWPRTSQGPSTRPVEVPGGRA
T2 sequence (P23510 51-183 limits assumed): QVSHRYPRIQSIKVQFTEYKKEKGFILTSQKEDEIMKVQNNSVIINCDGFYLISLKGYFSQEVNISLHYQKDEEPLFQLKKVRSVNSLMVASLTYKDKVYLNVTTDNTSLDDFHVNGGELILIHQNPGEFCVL
Protocol: as §1

[3] = tested on: CD40L-induced NF-κB activation in CD40 sensor cells (HEK Blue); assay: Inhibition of CD40L-induced NF-κB activation in CD40 sensor cells (HEK-Blue); type: cell-based, human; settings: CD40L 20 ng/mL, 18 h
Source text: Activities of the compounds of the disclosure were confirmed in cell-based assays. As a first example, TNF-R1 and CD40 expressing sensor cells (HEK-Blue; InvivoGen, San Diego, Calif.) were used as described in the literature (see Song et al., Br J Pharmacol 171:4955-4969 (2014) and Cechin et al., Steroids 85:36-43 (2014)).
Cells were maintained in DMEM at 80% confluence for each experiment. Cells were trypsinized and re-suspended in the same medium with 1% FBS and seeded on 96-well microtiter plates at a density of 1×10^5 cells/well in the absence and presence of various concentrations of compounds diluted in the same media. For ligand mediated stimulation, final concentrations of recombinant human TNFα (2 ng/mL) and CD40L (20 ng/mL) were maintained in the wells for this purpose. After 18-hour incubation at 37° C., 20 μL supernatant of each well were taken and added to another 96-well microtiter plate containing 180 μL/well of QUANTI-Blue (InvivoGen, CA). The level of SEAP was determined after 30-minute incubation at 37° C. by reading at 625 nm using a spectrophotometer. […] Data are average±SD (normalized to CD40L-activated cells alone) for n=4 independent experiments with duplicates for each condition.

[4] = tested on: TNFSF costimulatory interactions; settings: literature; cited from earlier work
[5] = tested on: CD40L-induced proliferation of human CD19+ B cells; assay: Inhibition of CD40L-induced human CD19+ B-cell proliferation (BrdU); type: cell-based
Protocol: Because CD40 stimulation is an important signal for B cell proliferation, soluble CD40L can concentration-dependently induce the proliferation of human B cells.
Inhibition of cell proliferation was determined in freshly isolated human CD19^+ B cells using the colorimetric cell proliferation ELISA BrdU kit from Roche Applied Science (Indianapolis, Ind.). B cells were isolated from the PBMC as follows. Briefly, cells were washed three times with medium (RPMI 1640) and incubated for 20 min at 4° C. with 20 μL/10^7 cells of anti-CD19 Microbeads (Miltenyi Biotech, Bergisch Gladbach, Germany), according to the MiniMacs protocol (Miltenyi Biotech). Cells were then purified using magnetic columns. […] Cells were cultured in 96 wells plates (100 μL/well) at a cell density of 2×10^5 cells/mL in IMDM medium supplemented with 5% FBS, 100 U/mL penicillin, streptomycin 100 μg/mL, insulin-transferrin-selenium-G (all materials from Invitrogen, San Diego, Calif.) and 10 […] (R&D Systems). […] After 48 h, BrdU labeling solution was added as recommended, and cells were cultivated for another 48 h. Detection of incorporated BrdU was carried out following the instructions of the ELISA BrdU kit.
Data are average±SD for n=3 independent experiments with triplicates for each condition using a standard BrdU assay (Roche).

Compound | IC50 ([1]; IC50 CD40, Table 2) [µM] | inhibition of human CD40-CD40L binding (in words) ([1]; cell-free binding) | IC50 [2] [µM] | activity of other small molecule inhibitors (in words) [4] | other results
Nc1ccc(C(=O)Nc2ccc(-c3ccc(C(=O)Nc4cccc5cccc(S(=O)(=O)O)c45)cc3)cc2)cc1 [Compound 21042] | 301 | concentration-dependent inhibition | 12.8 | – | –
O=C(Nc1ccc(-c2ccc(C(=O)Nc3cccc4cccc(S(=O)(=O)O)c34)cc2)cc1)c1ccc2[nH]nnc2c1 [Compound 21080] | 1 | concentration-dependent inhibition | 26.3 | – | –
COC(=O)c1cccc2c(NC(=O)c3ccc(-c4ccc(NC(=O)c5ccc([N+](=O)[O-])cc5)cc4)cc3)cccc12 [Compound 24541] | – | – | 6560 | – | IC50 ([1]; Table 2, read-out: IC50 CD40): 916 µM
O=C(Nc1ccc(-c2ccc(C(=O)Nc3ccc(S(=O)(=O)O)c4ccccc34)cc2)cc1)c1ccc([N+](=O)[O-])cc1 [Compound 25041] | 2.3 | concentration-dependent inhibition | 7 | – | –
O=C(Nc1ccc2c(O)c(N=Nc3ccc(N=Nc4ccc(S(=O)(=O)[O-])cc4)cc3S(=O)(=O)[O-])c(S(=O)(=O)[O-])cc2c1)Nc1ccc2c(O)c(N=Nc3ccc(N=Nc4ccc(S(=O)(=O)[O-])cc4)cc3S(=O)(=O)[O-])c(S(=O)(=O)[O-])cc2c1.[Na+].[Na+].[Na+].[Na+].[Na+].[Na+] [DR80, direct red 80, reference compound] | – | – | – | active in the low μM range | IC50 ([1]; cell-free binding, n=3 independent experiments, read-out: IC50, inhibition of the CD40-CD40L interaction): 2.26 µM; IC50 [3]: 42.7 µM
O=C([O-])C1=NN(c2ccc(S(=O)(=O)[O-])cc2)C(=O)C1N=Nc1ccc(S(=O)(=O)[O-])cc1.[Na+].[Na+].[Na+] (stereo not shown) [Tartrazine, reference compound] | – | inactive | – | – | inhibition of CD40L-induced human CD19+ B-cell proliferation (in words) [5]: no proliferation inhibiting activity
Nc1ccc2cc(S(=O)(=O)[O-])cc(O)c2c1N=Nc1ccc(-c2ccc(N=Nc3c(N)ccc4cc(S(=O)(=O)[O-])cc(O)c34)cc2)cc1.[Na+].[Na+] [chlorazol violet N] | – | – | – | active in the low μM range | –
Cc1cc(S(=O)(=O)[O-])ccc1N=Nc1ccc(N=Nc2c(O)ccc3cccc(S(=O)(=O)[O-])c23)c(C)c1.[Na+].[Na+] [crocein scarlet 7B] | – | – | – | active in the low μM range | –
mordant brown | – | – | – | active in the low μM range | –
